The values that follow come from PMC2854178 (Biochemistry, 2010).

The assay addresses AFUA_6g12080 (Orf12080) module 1 C*AT (Aspergillus fumigatus, UniProt Q4WLW5). The assay is classed as biochemical. The following applies: ATP, 10 mM MgCl2, pH 7.4, 25 °C, 5 μM enzyme (apo); off-pathway acyl-AMP release.

SMILES strings stand for the structures.

AFUA_6g12080 (Orf12080) module 1 C*AT, sequence (Q4WLW5 1-885): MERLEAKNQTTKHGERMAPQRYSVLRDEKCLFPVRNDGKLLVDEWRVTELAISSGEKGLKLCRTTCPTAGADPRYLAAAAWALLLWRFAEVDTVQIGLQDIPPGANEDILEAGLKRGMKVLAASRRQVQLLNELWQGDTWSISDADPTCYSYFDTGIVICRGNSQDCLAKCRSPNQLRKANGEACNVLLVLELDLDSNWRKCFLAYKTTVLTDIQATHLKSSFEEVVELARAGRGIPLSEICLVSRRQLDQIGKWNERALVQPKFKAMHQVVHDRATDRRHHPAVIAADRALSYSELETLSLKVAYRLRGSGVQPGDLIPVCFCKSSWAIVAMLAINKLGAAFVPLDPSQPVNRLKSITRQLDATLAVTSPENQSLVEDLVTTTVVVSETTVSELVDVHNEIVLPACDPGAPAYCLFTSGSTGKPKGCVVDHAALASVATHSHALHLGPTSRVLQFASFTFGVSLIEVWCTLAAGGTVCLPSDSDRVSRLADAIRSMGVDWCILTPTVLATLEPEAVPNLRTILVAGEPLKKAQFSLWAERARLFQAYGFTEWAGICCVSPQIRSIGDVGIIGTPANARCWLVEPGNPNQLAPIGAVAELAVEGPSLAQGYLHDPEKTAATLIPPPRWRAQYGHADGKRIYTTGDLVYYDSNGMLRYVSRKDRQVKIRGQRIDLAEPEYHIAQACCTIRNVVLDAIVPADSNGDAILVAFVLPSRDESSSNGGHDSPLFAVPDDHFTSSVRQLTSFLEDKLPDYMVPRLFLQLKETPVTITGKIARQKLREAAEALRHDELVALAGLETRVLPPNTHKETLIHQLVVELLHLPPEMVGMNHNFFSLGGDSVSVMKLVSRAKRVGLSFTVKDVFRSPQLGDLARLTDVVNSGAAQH

As to `Nc1ccccc1C(=O)O` [anthranilic acid, 2-aminobenzoic acid], the Km was 18 µM.

Usually Km stands for the substrate concentration at which the rate is half of its maximum.
